In one data set the target is T1, CCR-3 receptor (Homo sapiens, UniProt P51677).
T1 construct: expressed in transfected cells; host or cells: L1.2 (murine pre-beta lymphoma line)
T1 sequence (P51677 1-355): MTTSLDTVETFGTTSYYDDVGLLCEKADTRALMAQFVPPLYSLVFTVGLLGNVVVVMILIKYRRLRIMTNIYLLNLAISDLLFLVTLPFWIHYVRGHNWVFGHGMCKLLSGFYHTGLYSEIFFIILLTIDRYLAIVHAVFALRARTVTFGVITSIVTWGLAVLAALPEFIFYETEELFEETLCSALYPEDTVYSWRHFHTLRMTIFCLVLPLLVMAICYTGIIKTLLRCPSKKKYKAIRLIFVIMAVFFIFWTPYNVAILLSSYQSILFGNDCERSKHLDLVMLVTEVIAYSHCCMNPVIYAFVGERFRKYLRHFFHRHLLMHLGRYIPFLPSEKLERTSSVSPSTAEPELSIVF
Kind of data set: CCR-3 Receptor Binding Assay, inhibition of 125I eotaxin binding to CCR-3 L1.2 transfectant cells. Conditions: CCR-3 L1.2 transfected cells, 1 hour at rt., read-out: CCR3 Binding IC50. The procedure:
The CCR-3 antagonistic activity of the compounds of the invention was determined by their ability to inhibit the binding of ^125 I eotaxin to CCR-3 L1.2 transfectant cells (see Ponath, P. D. et al., J. Exp. Med., Vol. 183, 2437-2448, (1996)).
The assay was performed in Costar 96-well polypropylene round bottom plates. Test compounds were dissolved in DMSO and then diluted with binding buffer (50 mM HEPES, 1 mM CaCl2, 5 mM MgCl2, 0.5% bovine serum albumin (BSA), 0.02% sodium azide, pH 7.24) such that the final DMSO concentration was 2%. 25 μl of the test solution or only buffer with DMSO (control samples) was added to each well, followed by the addition of 25 μl of ^125I-eotaxin ([…]) (NEX314, New England Nuclear, Boston, Mass.) and 1.5×10^5 of the CCR-3 L1.2 transfected cells in 25 μl binding buffer. The final reaction volume was 75 μl.
After incubating the reaction mixture for 1 hour at rt., the reaction was terminated by filtering the reaction mixture through polyethylenimine treated Packard Unifilter GF/C filter plate (Packard, Chicago, Ill.). The filters were washed four times with ice cold wash buffer containing 10 mm HEPES and 0.5M sodium chloride (pH 7.2) and dried at 65° C. for approximately 10 minutes. 25 μl/well of Microscint-20® scintillation fluid (Packard) was added and the radioactivity retained on the filters was determined by using the Packard TopCount®. […]

As for `CC(C)C(CN1CCN(Cc2ccc(Cl)c(Cl)c2)CC1)Nc1nc2ccccc2o1` (stereo not drawn) [Example 28, 1-[2-(Benzooxazol-2-ylamino)-3-methyl-butyl]-4-(3,4-dichloro-benzyl)-piperazin-1-ium; chloride], at CCR-3 receptor, the IC50 amounted to 970 nM.
The same measure, in the same setting: for `CC(C)(C)[C@H](CN1CCC(Cc2ccc(Cl)c(Cl)c2)CC1)Nc1nc2ccccc2o1` [Example 18, 1-[(R)-2-(benzooxazol-2-ylamino)-3,3-dimethyl-butyl]-4-(3,4-dichloro-benzyl)-piperidinium; chloride] the value was 150 nM.
With `Cc1ccc2oc(NC(CN3CCN(Cc4ccc(Cl)c(Cl)c4)CC3)C(C)C)nc2c1` (stereo not drawn) [Example 9, {1-[4-(3,4-Dichloro-benzyl)-piperazin-1-ylmethyl]-2-methyl-propyl}-(5-methyl-benzooxazol-2-yl)-amine], the melting point lay within 155.3 to 156.9 °C.

Values taken from patent publication US20050090504A1, “Piperidinyl and piperazinyl compounds substituted with bicyclo-heterocyclylalkyl groups useful as CCR3 receptor antagonists” (priority 2003, published 2005).
